Experimental data from patent US6506768B2, “Tetrahydro γ-carbolines” (Janssen Pharmaceutica N.V., priority 1997, dated 2003).

Experiments:
5HT2 receptors = biological target: T1, 5HT2 receptors (Rattus norvegicus, UniProt P14842); assay: 5HT2 binding in rat frontal cortex (radioligand binding, [3H]ketanserin); settings: rat frontal cortex membrane fraction; 1 nM [3H]ketanserin; pIC50 = −log IC50, IC50 in M
T1 construct: 5HT2 receptors were measured in a rat frontal cortex membrane fraction; from tissue; host or cells: Wistar rat frontal cortex membrane fraction
T1 sequence (P14842 whole entry): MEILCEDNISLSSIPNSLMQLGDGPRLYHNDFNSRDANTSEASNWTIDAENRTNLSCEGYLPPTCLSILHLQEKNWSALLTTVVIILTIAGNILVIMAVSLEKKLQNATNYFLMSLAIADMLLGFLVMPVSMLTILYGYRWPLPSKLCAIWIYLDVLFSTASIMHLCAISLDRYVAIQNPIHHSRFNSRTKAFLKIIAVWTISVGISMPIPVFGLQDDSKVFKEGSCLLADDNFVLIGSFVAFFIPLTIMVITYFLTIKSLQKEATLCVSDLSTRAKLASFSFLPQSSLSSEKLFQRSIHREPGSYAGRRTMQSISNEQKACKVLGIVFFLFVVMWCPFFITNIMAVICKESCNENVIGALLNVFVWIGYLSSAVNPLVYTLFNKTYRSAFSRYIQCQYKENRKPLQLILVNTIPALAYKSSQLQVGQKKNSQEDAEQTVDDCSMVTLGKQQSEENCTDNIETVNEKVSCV
Protocol: (§1) 5HT2 receptors were measured by radioligand binding studies either in homogenates from rat brains or in a membranes fraction prepared from L929sA cells (mouse fibro carcinoma cells), stably transfected with human 5HT2A receptor cDNA.
5HT2 Binding in Rat Frontal Cortex
5HT2 receptors were measured in a rat frontal cortex membrane fraction. Herefore wistar rats were killed by decapitation, brains were removed and frontal cortex was dissected. The frontal cortex was homogenized in Tris-HCL buffer 50 mM pH7.7. The homogenate was centrifuged at 23.000 g for 10 minutes. The resulting pellet was washed twice by resuspension and recentrifugation and the pellet was finally suspended in Tris-HCL buffer 50 mM pH7.7 in a dilution of 100 (vol/wet weight of tissue). 400 μl of the homogenate was incubated with 1 nM [^3H]ketanserin in a total incubation volume of 0.5 ml for 30 minutes at 37° C. The incubation was stopped by rapid filtration using a manual filtration manifold. The filters were rinsed twice with ice-cold buffer and were counted in a liquid scintillation counter. Non-specific binding was determined in the presence of 1 μM methysergide.
(§2) Counting data from assays in the presence of test compound were automatically expressed as percent of total binding measured in the absence of test compound. Therefrom, the pIC50 (−log IC50)-values (IC50=concentration in M inhibiting 50% of the specific radioligand binding or neurotransmitter uptake) were derived and are listed in Table 9 (a “-” means “not measured”).

human 5HT2A receptor = biological target: T2, human 5HT2A receptor (Homo sapiens, UniProt P28223); assay: 5HT2A binding in L929sA cells (radioligand binding, 125I ligand); settings: membranes of L929sA cells expressing human 5HT2A receptors; 0.1 nM 125I radioligand; pIC50 = −log IC50, IC50 in M
T2 construct: expressed in transfected cells; host or cells: L929sA cells (mouse fibro carcinoma cells), stably transfected, induced with m-interferon-b
T2 sequence (P28223 whole entry): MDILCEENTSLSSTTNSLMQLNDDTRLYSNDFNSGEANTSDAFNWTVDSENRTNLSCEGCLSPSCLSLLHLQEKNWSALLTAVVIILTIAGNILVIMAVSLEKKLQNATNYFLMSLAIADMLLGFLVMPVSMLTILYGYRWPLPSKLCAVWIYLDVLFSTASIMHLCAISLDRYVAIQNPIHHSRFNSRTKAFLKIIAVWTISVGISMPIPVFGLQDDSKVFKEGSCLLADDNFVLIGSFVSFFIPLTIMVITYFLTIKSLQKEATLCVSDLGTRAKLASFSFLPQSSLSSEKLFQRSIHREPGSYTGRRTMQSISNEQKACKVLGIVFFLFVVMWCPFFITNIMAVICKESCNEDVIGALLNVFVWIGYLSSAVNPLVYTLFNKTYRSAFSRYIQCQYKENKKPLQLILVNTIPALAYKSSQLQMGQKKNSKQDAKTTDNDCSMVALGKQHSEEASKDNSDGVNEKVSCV
Protocol: as §1
5HT2A Binding in L929sA Cells
L929sA cells expressing human 5HT2A receptors were cultured in Petri dishes in DMEM medium (Gibco cat.nr. 41965-039) enriched with 5% heat inactivated fetal calf serum and in the presence of penicillin and streptomycin sulphate. 24 h before collection, cells were induced with m-interferon-b (1000 U/ml medium). Cells were collected by scrapping and centrifugation at low speed (5 minutes at 1500 g). The cells were homogenized and centrifuged for 10 minutes at 23.000 g. The resulting pellet was diluted in Tris-HCl 50 mM pH 7.7 and stored at −70° C. On the day of the experiment, a vial was thawed and diluted in Tris-HCl buffer. 5HT2A receptors are labeled with 0.1 nM [^125I] 4-amino-N-[1-[3-(4-fluorophenoxy)propyl]-4-methyl-4-piperidinyl]-2-methoxybenzamide dihydrate. Membranes (0.2 ml) were incubated with the radioligand for 60 minutes at 37° C. in a total volume of 0.25 ml. The reaction was stopped by rapid filtration and the filter rounds were counted in an auto-gamma spectrophotometer.
as §2

Compound	IC50 (5HT2 receptors) [nM]	IC50 (human 5HT2A receptor) [nM]	5HT2A-binding (human 5HT2A receptor)
Cc1nc2ccccn2c(=O)c1CCN1CCc2[nH]c3ccc(F)cc3c2C1 [Compound 1]	3.89	13.2	
Cc1nc2n(c(=O)c1CCN1CCc3[nH]c4ccc(F)cc4c3C1)CCCS2 [Compound 2, 7-[2-(8-fluoro-1,3,4,5-tetrahydro-2H-pyrido[4,3-b]indol-2-yl)ethyl]-3,4-dihydro-8-methyl-2H,6H-pyrimido[2,1-b][1,3]-thiazin-6-one]	36.3		
Cc1nc2n(c(=O)c1CCN1CCc3[nH]c4ccc(F)cc4c3C1)CCCC2 [Compound 4]	12.6		
Cc1nc2scc(C)n2c(=O)c1CCN1CCc2[nH]c3ccc(F)cc3c2C1 [Compound 5]		3.09	
Cc1nc2sccn2c(=O)c1CCN1CCc2[nH]c3ccc(F)cc3c2C1 [Compound 6]	1	6.46	
Cc1nc2sccn2c(=O)c1CCN1CCc2[nH]c3cc(Cl)ccc3c2C1 [Compound 7]	7.59	22.9	
Cc1nc2scc(C)n2c(=O)c1CCN1CCc2[nH]c3cc(Cl)ccc3c2C1 [Compound 8]	4.27	9.77	
Cc1nc2ccccn2c(=O)c1CCN1CCc2[nH]c3cc(Cl)ccc3c2C1 [Compound 9]	9.55	57.5	
Cc1nc2n(c(=O)c1CCN1CCc3[nH]c4cc(Cl)ccc4c3C1)CCCC2 [Compound 10]	25.7	457	
Cc1nc2n(c(=O)c1CCN1CCc3[nH]c4cc(Cl)ccc4c3C1)CCCS2 [Compound 11]		575	
Cc1nc2n(c(=O)c1CCN1CCc3[nH]c4cc(Cl)ccc4c3C1)CCS2 [Compound 12]		617	
Cc1nc2c(C)cccn2c(=O)c1CCN1CCc2[nH]c3cc(Cl)ccc3c2C1 [Compound 13]		1480	
Cc1nc2ccc(Br)cn2c(=O)c1CCN1CCc2[nH]c3cc(Cl)ccc3c2C1 [Compound 14]		417	
Cc1nc2c(Cl)cc(C(F)(F)F)cn2c(=O)c1CCN1CCc2[nH]c3cc(Cl)ccc3c2C1 [Compound 15]		10000	
Cc1ccc2nc(C)c(CCN3CCc4[nH]c5cc(Cl)ccc5c4C3)c(=O)n2c1 [Compound 16]		126	
Cc1nc2ccc(Cl)cn2c(=O)c1CCN1CCc2[nH]c3cc(Cl)ccc3c2C1 [Compound 17]		251	
Cc1cc(C)n2c(=O)c(CCN3CCc4[nH]c5cc(Cl)ccc5c4C3)c(C)nc2c1.O=C(O)/C=C/C(=O)O [Compound 18]			5.6
COc1cccn2c(=O)c(CCN3CCc4[nH]c5cc(Cl)ccc5c4C3)c(C)nc12 [Compound 20, 3-[2-(7-chloro-1,3,4,5-tetrahydro-2H-pyrido[4,3-b]indol-2-yl)ethyl]-9-methoxy-2-4-H-pyrido[1,2-a]pyrimidin-4-one]		316	
Cc1ccn2c(=O)c(CCN3CCc4[nH]c5cc(Cl)ccc5c4C3)c(C)nc2c1 [Compound 22]		631	
Cc1nc2scc(C)n2c(=O)c1CCN1CCc2[nH]c3ccc(Cl)cc3c2C1 [Compound 23]	1	2.34	
Cc1nc2n(c(=O)c1CCN1CCc3[nH]c4ccc(Cl)cc4c3C1)CCCS2 [Compound 24]	1.95	8.51	
Cc1nc2sccn2c(=O)c1CCN1CCc2[nH]c3ccc(Cl)cc3c2C1 [Compound 25]		3.31	

Compound	IC50 (5HT2 receptors) [nM]	IC50 (human 5HT2A receptor) [nM]	5HT2A-binding (human 5HT2A receptor)
Cc1nc2n(c(=O)c1CCN1CCc3[nH]c4ccc(Cl)cc4c3C1)CCS2 [Compound 26]		6.17	
Cc1nc2n(c(=O)c1CCN1CCc3[nH]c4ccc(Cl)cc4c3C1)CCCC2 [Compound 27]	2.82		
Cc1nc2ccccn2c(=O)c1CCN1CCc2[nH]c3ccc(Cl)cc3c2C1 [Compound 28]	1.23	7.59	
Cc1ccc2[nH]c3c(c2c1)CN(CCc1c(C)nc2sccn2c1=O)CC3 [Compound 30]	1.62	8.32	
Cc1ccc2[nH]c3c(c2c1)CN(CCc1c(C)nc2scc(C)n2c1=O)CC3 [Compound 32]	0.398	4.47	
Cc1ccc2[nH]c3c(c2c1)CN(CCc1c(C)nc2n(c1=O)CCCS2)CC3 [Compound 33]	4.47		
Cc1ccc2[nH]c3c(c2c1)CN(CCc1c(C)nc2n(c1=O)CCCC2)CC3 [Compound 35]	3.72		
Cc1ccc2[nH]c3c(c2c1)CN(CCc1c(C)nc2n(c1=O)CCCC2)CC3 [Compound 36]		316	
Cc1nc2ccccn2c(=O)c1CCN1CCc2[nH]c3ccccc3c2C1 [Compound 37]	3.24	44.7	
Cc1nc2sccn2c(=O)c1CCN1CCc2[nH]c3ccccc3c2C1 [Compound 38]	8.13	12.6	
Cc1nc2scc(C)n2c(=O)c1CCN1CCc2[nH]c3ccccc3c2C1 [Compound 39]	2.63	5.01	
Cc1nc2n(c(=O)c1CCN1CCc3[nH]c4ccccc4c3C1)CCS2 [Compound 41]	14.5		
COc1ccc2[nH]c3c(c2c1)CN(CCc1c(C)nc2n(c1=O)CCCC2)CC3 [Compound 52]	28.8	49	
COc1ccc2[nH]c3c(c2c1)CN(CCc1c(C)nc2ccccn2c1=O)CC3 [Compound 53]	17.8	23.4	
Cc1nc2n(c(=O)c1CCN1CCc3c(c4cc(F)ccc4n3-c3ccc(F)cc3)C1)CCS2 [Compound 67]	1.82	4.37	
Cc1nc2scc(C)n2c(=O)c1CCN1CCc2c(c3cc(F)ccc3n2-c2ccc(F)cc2)C1 [Compound 68]		6.61	
Cc1nc2ccccn2c(=O)c1CCN1CCc2c(c3ccccc3n2Cc2ccccc2)C1 [Compound 69]	11.2		
Cc1nc2n(c(=O)c1CCN1CCc3c(c4ccccc4n3-c3ccccc3)C1)CCS2 [Compound 86]		4.57	
Cc1nc2n(c(=O)c1CCN1CCc3c(c4ccccc4n3-c3ccccc3)C1)CCCC2 [Compound 89]		6.92	
Cc1nc(N)n(C)c(=O)c1CCN1CCc2[nH]c3ccccc3c2C1 [Compound 100]	5.01		
Fc1ccc2[nH]c3c(c2c1)CN(CCCCNc1nc2ccccc2s1)CC3 [Compound 108, N-2-benzothiazolyl-8-fluoro-1,3,4,5,-tetrahydro-2H-pyrido[4,3-b]indole-2-butanamine]	550		
